Measured values from PMC7687371, “Quantitative in Vitro to in Vivo Extrapolation (QIVIVE) for Predicting Reduced Anogenital Distance Produced by Anti-Androgenic Pesticides in a Rodent Model for Male Reproductive Disorders” (Environmental Health Perspectives, 2020).
Marks after values point to notes of the source that are not given here.

Key:
pregnant dams and pups = details: ref EFSA's Draft Assessment Reports (DARs); cited from earlier work
[1] = design: method as in EFSA 2009; details: 24 h after dosing; ref EFSA 2009; cited from earlier work
[2] = design: method as in U.S. EPA 2012; details: EPI Suite, experimental preferred over modeled; ref U.S. EPA 2012; cited from earlier work
[3] = PBK model first-order kinetic parameters fitted to in vivo ADME data; design: species or system rat; details: PBK model parameter
[4] = ref Wetmore et al. (2012); cited from earlier work
NCI-H295R cells = assay: H295R steroidogenesis assay; format: cell-based, human
Protocol: To capture effects on steroid hormone synthesis (testosterone and androstendione), we tested all 12 pesticides in the H295R assay with the human adrenocortical carcinoma cell line NCI-H295R (American Type Culture Collection no. CRL-2,128, LGC Standards), as previously described ([Hecker et al. 2011]; [Rosenmai et al. 2013]). In brief, cells were cultured in DMEM/F-12 +glutamine medium with HEPES buffer (Invitrogen) containing 1% insulin-transferrin-sodium selenite plus Premix (VWR) and 2.5% Nu-Serum (BD Bioscience) at 37°C in a 5% CO2 atmosphere. The day before exposure, cells were seeded 300,000 per well in clear 24-well plates (VWR Corning). Cells were exposed for 48 h to control (Forskolin: 1μM , 10μM (Sigma-Aldrich); and Prochloraz: 0.3μM , 3μM (VWR-Bie and Berntsen) or test compounds. The vehicle (DMSO) concentration was kept constant in all wells (0.1%). After 48 h, the exposure culture medium was removed and stored at –80°C until the levels of 10 steroid hormones (testosterone, androstenedione, aldosterone, corticosterone, cortisol, dehydroepiandrosterone, 17α-hydroxyprogesterone , progesterone, estrone, and 17β-estradiol ) were quantified using the high-performance liquid chromatography–tandem mass spectrometry method described elsewhere ([Mortensen and Pedersen 2007]). Minor modifications were made to accommodate a smaller sample size and to include more hormones. The liquid chromatography system (Agilent 1100) was equipped with an Atlantis C18 column ( 2.1×150mm , 3μm ) (Waters Corp.) maintained at 40°C. The sample injection volume was 50μL . […] The mass spectrometer was a Quattro Ultima triple quadrupole instrument (Waters Corp.). […] Each pesticide was tested in 2-fold serial dilutions at concentrations between 0.8 and 50μM in three independent experiments, and hormone levels were normalized to the solvent controls containing 0.1% DMSO. Cell viability was evaluated by using the 3-(4,5-dimethylthiazol-2-yl)-2,5- diphenyltetrazolium bromide (MTT) assay (Sigma) as previously described ([Hecker et al. 2011]; [Rosenmai et al. 2013]). Fluorescence was measured (excitation 560 nm , emission 590 nm ) using a Wallac Victor2 1420 multilabel counter (PerkinElmer).

C=CCOC(Cn1ccnc1)c1ccc(Cl)cc1Cl (stereo not shown) [Imazalil, imazalil]
Critical toxicity (pregnant dams and pups): Increased duration of gestation , effects on pups/fetuses related to maternal toxicity
LOAEL (mg/kg bw) (pregnant dams and pups): 80 mg/kg bw
NOAEL (mg/kg bw) (pregnant dams and pups): 20 mg/kg bw
Number of metabolites discovered in urine and feces [1]: at least 25
log Kow [2]: 3.82
Fecal excretion rate from gut (L/h) KFeces [3]: 0.5 L/h
Portal GI absorption rate into liver (L/h) KAS [3]: 1 L/h
Urine excretion rate from kidney (L/h) KUrine [3]: 0.53 L/h
Unbound plasma fraction (%) [4]: 4.8^g %
Effect on androgen (steroid) synthesis, in words (NCI-H295R cells; H295R steroidogenesis assay): inhibited testosterone synthesis
IC20 (NCI-H295R cells; Homo sapiens, NCI-H295R, read-out: Testosterone inhibition (IC20 µM)): 500 nM
Androstendione, LOEC (NCI-H295R cells; multiple contrast tests): 0.8 µM
Corticosterone, LOEC (NCI-H295R cells; multiple contrast tests): 0.8 µM
Cortisol, LOEC (NCI-H295R cells; multiple contrast tests): 0.8 µM
DHEA, LOEC (NCI-H295R cells; multiple contrast tests): 0.8 µM
Estradiol, LOEC (NCI-H295R cells; multiple contrast tests): 0.8 µM
OH-Progesterone, LOEC (NCI-H295R cells; multiple contrast tests): 0.8 µM
Progesterone, LOEC (NCI-H295R cells; multiple contrast tests): 0.8 µM
Testosterone, lowest observed effect concentration (LOEC) (NCI-H295R cells; multiple contrast tests): 0.8 µM
